In patent publication US20240287080A1 (IDEAYA Biosciences Inc., priority 2021, published 2024) one finds IC50 data, which are given here for 34 molecules.

pIC50: −log10 of the molar value. Where only a bound is given, the exact number is not on record here.

T1 sequence (O75417 1-899): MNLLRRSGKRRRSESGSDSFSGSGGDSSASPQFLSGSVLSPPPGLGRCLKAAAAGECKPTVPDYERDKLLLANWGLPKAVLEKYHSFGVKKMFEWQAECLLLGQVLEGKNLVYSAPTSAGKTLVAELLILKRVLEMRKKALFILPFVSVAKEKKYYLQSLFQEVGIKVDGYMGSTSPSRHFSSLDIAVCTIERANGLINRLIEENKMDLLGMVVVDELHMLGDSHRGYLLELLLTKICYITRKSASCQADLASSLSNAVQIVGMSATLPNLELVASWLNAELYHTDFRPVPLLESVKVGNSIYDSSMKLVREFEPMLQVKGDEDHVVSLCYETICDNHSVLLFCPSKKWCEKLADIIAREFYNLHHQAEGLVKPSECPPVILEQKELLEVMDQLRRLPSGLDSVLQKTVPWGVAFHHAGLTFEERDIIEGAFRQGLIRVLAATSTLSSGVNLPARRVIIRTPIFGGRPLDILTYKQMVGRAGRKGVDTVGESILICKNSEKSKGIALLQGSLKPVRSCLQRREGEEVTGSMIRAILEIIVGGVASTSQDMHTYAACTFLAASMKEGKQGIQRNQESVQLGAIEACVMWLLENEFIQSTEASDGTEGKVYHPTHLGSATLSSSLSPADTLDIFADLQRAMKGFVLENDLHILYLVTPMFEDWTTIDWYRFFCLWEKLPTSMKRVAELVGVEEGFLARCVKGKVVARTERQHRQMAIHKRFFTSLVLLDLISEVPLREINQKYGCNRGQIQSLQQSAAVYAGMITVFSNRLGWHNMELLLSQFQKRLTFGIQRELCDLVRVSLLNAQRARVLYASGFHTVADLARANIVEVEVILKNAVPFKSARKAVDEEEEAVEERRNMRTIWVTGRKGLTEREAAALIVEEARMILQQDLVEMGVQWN

One assay concerns the target T1, Pol theta (1-899) (Homo sapiens, UniProt O75417).
T1 construct: Pol theta (1-899) (5 nM) in assay buffer
As to the kind of experiment: Pol theta ATPase activity, NADH oxidation-coupled enzymatic assay (ATPase NADH coupling: Standard Screening: hPolQ). The assay is classed as biochemical. The settings on record: Pol theta (1-899) 5 nM, NADH oxidation-coupled ATPase assay; compounds of Table 3. An outline of the steps:
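Rates of ATP hydrolysis taken from 60-min A340 traces of NADH oxidation via PK/LDH coupling, then fit four-parameter for IC50, Hill slope and max inhibition. Enzyme (5 nM, 1-899) and compounds preincubated 15 min before ATP 100 μM and 50-thymine ssDNA 300 nM (stock, equal volume added).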
In general, pIC50 refers to the IC50 on a negative log10 scale, so that one unit is a factor of ten. A high value points to a small IC50. For the molecule `COc1nnc(NC(=O)c2cnc(C)cc2-c2cncc(C#N)c2)s1` [Example 334, 5-cyano-N-(5-methoxy-1,3,4-thiadiazol-2-yl)-6′-methyl-[3,4′-bipyridine]-3′-carboxamide], the pIC50 is 5.00 to 6.00.
The same measure, in the same setting: under `Cc1cc(-c2cc(Cl)ncc2OC(F)F)c(C(=O)Nc2nnc(O[C@H]3CCC[C@@H](O)C3)s2)cn1` (single isomer, unassigned) [Example 253] stands at least 6.70; under `COc1nnc(NC(=O)c2cnc(C)cc2-c2cccc(S(C)(=O)=O)c2)s1` [Example 397, 4-(3-methanesulfonylphenyl)-N-(5-methoxy-1,3,4-thiadiazol-2-yl)-6-methylpyridine-3-carboxamide], 6.00 to 6.30; under `COc1nnc(NC(=O)c2cnc(C)cc2-c2cc(C)nc(C)c2)s1` [Example 469, N-(5-methoxy-1,3,4-thiadiazol-2-yl)-2′,6,6′-trimethyl-[4,4′-bipyridine]-3-carboxamide], 6.30 to 6.70.
On the same count and under the same terms, under `COc1nnc(NC(=O)c2cnc(C)cc2-c2ccc(F)cc2C)s1` [Example 428, 4-(4-fluoro-2-methylphenyl)-N-(5-methoxy-1,3,4-thiadiazol-2-yl)-6-methylpyridine-3-carboxamide] stands 6.00 to 6.30.
On the same count and under the same terms, to `COc1nnc(NC(=O)c2cnc(C)cc2-c2cnc3[nH]ncc3c2)s1` [Example 357, N-(5-methoxy-1,3,4-thiadiazol-2-yl)-6-methyl-4-(1H-pyrazolo[3,4-b]pyridin-5-yl)nicotinamide] belongs 5.00 to 6.00; to `CNS(=O)(=O)c1cccc(-c2cc(C)ncc2C(=O)Nc2nnc(OC)s2)c1` [Example 401, N-(5-methoxy-1,3,4-thiadiazol-2-yl)-6-methyl-4-[3-(methylsulfamoyl)phenyl]pyridine-3-carboxamide], 5.00 to 6.00.
The molecule `CC[S@+]([O-])c1cc(OC)c(-c2cc(C)ncc2C(=O)Nc2nnc(OC)s2)cc1Cl` (single isomer, unassigned) [Example 312] showed a pIC50 of 6.00 to 6.30.
Same read-out and setting: under `COc1nnc(NC(=O)c2cnc(C)cc2-c2ccncc2C)s1` [Example 406, N-(5-methoxy-1,3,4-thiadiazol-2-yl)-3′,6-dimethyl-[4,4′-bipyridine]-3-carboxamide] stands 5.00 to 6.00.
Same read-out and setting: to `COc1nnc(NC(=O)c2cnc(C)cc2-c2cnc(C#N)cc2C)s1` [Example 413, 6-cyano-N-(5-methoxy-1,3,4-thiadiazol-2-yl)-4,6′-dimethyl-[3,4′-bipyridine]-3′-carboxamide] belongs 5.00 to 6.00.
The same measure, in the same setting: to `COc1nnc(NC(=O)c2cc(CC#N)ncc2-c2cc(Cl)ncc2OC)s1` [Example 302, 2′-chloro-6-(cyanomethyl)-5′-methoxy-N-(5-methoxy-1,3,4-thiadiazol-2-yl)-[3,4′-bipyridine]-4-carboxamide] belongs at least 6.70.
`COc1cnc(Cl)c(F)c1-c1cc(C)ncc1C(=O)Nc1nnc(O[C@H]2CC[C@@H](CO)CC2)s1` [Example 245, 2′-chloro-3′-fluoro-N-(5-(((1s,4s)-4-(hydroxymethyl)cyclohexyl)oxy)-1,3,4-thiadiazol-2-yl)-5′-methoxy-6-methyl-[4,4′-bipyridine]-3-carboxamide] showed a pIC50 of at least 6.70.
Still for that read-out and setting: to `COc1nnc(NC(=O)c2cnc(C(F)F)cc2-c2cc(Cl)ncc2OC)s1` [Example 281, 2′-chloro-6-(difluoromethyl)-5′-methoxy-N-(5-methoxy-1,3,4-thiadiazol-2-yl)-[4,4′-bipyridine]-3-carboxamide] belongs at least 6.70.
On the same count and under the same terms, under `COc1nnc(NC(=O)c2cnc(C)cc2-c2ccc(C(C)(C)C)cc2)s1` [Example 356, 4-(4-(tert-butyl)phenyl)-N-(5-methoxy-1,3,4-thiadiazol-2-yl)-6-methylnicotinamide] stands 5.00 to 6.00.

The same assay, now with this note: Table 4; Pol theta (1-899) 5 nM, ATP, dT50 ssDNA.
For `COc1nnc(NC(=O)c2cnc(C)cc2-c2cc(Br)ncc2OC)s1` [Example 63, 2′-bromo-5′-methoxy-N-(5-methoxy-1,3,4-thiadiazol-2-yl)-6-methyl-(4,4′-bipyridine)-3-carboxamide], the pIC50 was at least 6.70.
On to `COc1cnc(Cl)cc1-c1cc(C)ncc1C(=O)Nc1nnc(O[C@H]2CC[C@H](O)C2)s1` [Example 45, 2′-chloro-N-(5-(((1s,3s)-3-hydroxycyclopentyl)oxy)-1,3,4-thiadiazol-2-yl)-5′-methoxy-6-methyl-(4,4′-bipyridine)-3-carboxamide], for which the pIC50 was at least 6.70.
In turn, `COc1cnc(Cl)cc1-c1cc(C)ncc1C(=O)Nc1nnc(O[C@H]2CC[C@H](O)CC2)s1` (single isomer, unassigned) [Example 27, 2′-chloro-N-(5-(((1r,4r)-4-hydroxycyclohexyl)oxy)-1,3,4-thiadiazol-2-yl)-5′-methoxy-6-methyl-[4,4′-bipyridine]-3-carboxamide] showed a pIC50 of at least 6.70.
Molecule `COc1nnc(NC(=O)c2cnc(C)cc2-c2cc3[nH]ncc3cc2OC)s1` [Example 67, N-(5-methoxy-1,3,4-thiadiazol-2-yl)-4-(5-methoxy-1H-indazol-6-yl)-6-methylnicotinamide] had a pIC50 of 5.00 to 6.00.
Consider `COc1cnc(Cl)cc1-c1cc(C)ncc1C(=O)Nc1nnc(O[C@H]2C[C@H](O)C2)s1` [Example 16, 2′-chloro-N-(5-((1r,3r)-3-hydroxycyclobutoxy)-1,3,4-thiadiazol-2-yl)-5′-methoxy-6-methyl-(4,4′-bipyridine)-3-carboxamide], for which the pIC50 is at least 6.70.
On the same count and under the same terms, to `CCCOc1nnc(NC(=O)c2cnc(C)cc2-c2cc(Cl)ncc2OC)s1` [Example 37, 2′-chloro-5′-methoxy-6-methyl-N-(5-propoxy-1,3,4-thiadiazol-2-yl)-(4,4′-bipyridine)-3-carboxamide] belongs at least 6.70.
Still for that read-out and setting: under `COc1cnc(Cl)cc1-c1cc(C)ncc1C(=O)Nc1nnc(OC2CC2)s1` [Example 7, 2′-chloro-N-(5-cyclopropoxy-1,3,4-thiadiazol-2-yl)-5′-methoxy-6-methyl-(4,4′-bipyridine)-3-carboxamide] stands at least 6.70.

Staying with this assay, now noted: Table 5; Pol theta (1-899) 5 nM, ATP, dT50 ssDNA.
Molecule `COc1cnc(Cl)cc1-c1cc(C)ncc1C(=O)Nc1nnc(O[C@H]2CC[C@H](C(C)(C)O)CC2)s1` [Example 187, 2′-chloro-N-(5-(((1r,4r)-4-(2-hydroxypropan-2-yl)cyclohexyl)oxy)-1,3,4-thiadiazol-2-yl)-5′-methoxy-6-methyl-(4,4′-bipyridine)-3-carboxamide] gave a pIC50 of at least 6.70.
The same measure, in the same setting: to `COc1nnc(NC(=O)c2cnc(C)cc2-c2ccnc(Cl)c2)s1` [Example 100, 2′-chloro-N-(5-methoxy-1,3,4-thiadiazol-2-yl)-6-methyl-(4,4′-bipyridine)-3-carboxamide] belongs 6.30 to 6.70.
On the same count and under the same terms, to `COc1cnc(Cl)cc1-c1cc(C)ncc1C(=O)Nc1nnc(O[C@@H]2CCC[C@@H](O)C2)s1` (single isomer, unassigned) [Example 162] belongs at least 6.70.
The same measure, in the same setting: to `Cc1cc(-c2cc(Cl)ncc2OC(F)F)c(C(=O)Nc2nnc(O[C@H]3CCOC3)s2)cn1` [Example 83, (S)-2′-chloro-5′-(difluoromethoxy)-6-methyl-N-(5-((tetrahydrofuran-3-yl)oxy)-1,3,4-thiadiazol-2-yl)-(4,4′-bipyridine)-3-carboxamide] belongs at least 6.70; to `COc1cnc(Cl)cc1-c1cc(C)ncc1C(=O)Nc1nnc(O[C@@H]2CO[C@H](C)C2)s1` (single isomer, unassigned) [Example 189], at least 6.70.
With `COc1nnc(NC(=O)c2cnc(C)cc2-c2cccc(Cl)c2)s1` [Example 102, 4-(3-chlorophenyl)-N-(5-methoxy-1,3,4-thiadiazol-2-yl)-6-methylnicotinamide], the pIC50 is 6.30 to 6.70.
Still for that read-out and setting: to `COc1cnc(Cl)cc1-c1cc(C)ncc1C(=O)Nc1nnc(O[C@H]2CCC[C@@](C)(O)C2)s1` (single isomer, unassigned) [Example 179] belongs at least 6.70.
Still for that read-out and setting: to `COc1cnc(Br)cc1-c1cc(C)ncc1C(=O)Nc1nnc(O[C@H]2CC[C@@](C)(O)CC2)s1` (single isomer, unassigned) [Example 222, 2′-bromo-N-(5-(((1s,4s)-4-hydroxy-4-methylcyclohexyl)oxy)-1,3,4-thiadiazol-2-yl)-5′-methoxy-6-methyl-(4,4′-bipyridine)-3-carboxamide] belongs at least 6.70; to `COc1nnc(NC(=O)c2cnc(C)cc2-c2ccnc3nccn23)s1` [Example 88, 4-(imidazo(1,2-a)pyrimidin-5-yl)-N-(5-methoxy-1,3,4-thiadiazol-2-yl)-6-methylnicotinamide], 5.00 to 6.00.
On the same count and under the same terms, to `COc1cnc(Cl)c(F)c1-c1cc(C)ncc1C(=O)Nc1nnc(O[C@H]2CC[C@@H](OC)CC2)s1` (single isomer, unassigned) [Example 152, 2′-chloro-3′-fluoro-5′-methoxy-N-(5-(((1s,4s)-4-methoxycyclohexyl)oxy)-1,3,4-thiadiazol-2-yl)-6-methyl-(4,4′-bipyridine)-3-carboxamide] belongs at least 6.70; to `COc1cnc(Br)cc1-c1cc(C)ncc1C(=O)Nc1nnc(O[C@H]2CC[C@H](O)CC2)s1` [Example 194, 2′-bromo-N-(5-(((1r,4r)-4-hydroxycyclohexyl)oxy)-1,3,4-thiadiazol-2-yl)-5′-methoxy-6-methyl-(4,4′-bipyridine)-3-carboxamide], at least 6.70; to `COc1cnc(Cl)c(F)c1-c1cc(C)ncc1C(=O)Nc1nnc(O[C@H]2CC[C@](C)(O)CC2)s1` (single isomer, unassigned) [Example 172, 2′-chloro-3′-fluoro-N-(5-(((1r,4r)-4-hydroxy-4-methylcyclohexyl)oxy)-1,3,4-thiadiazol-2-yl)-5′-methoxy-6-methyl-(4,4′-bipyridine)-3-carboxamide], at least 6.70.
Molecule `COc1cnc(Cl)c(F)c1-c1cc(C)ncc1C(=O)Nc1nnc(O[C@H]2CCC[C@H](O)C2)s1` (single isomer, unassigned) [Example 156] had a pIC50 of at least 6.70.
